In PubChem BioAssay AID248 (DTP/NCI, 2004):
Several values for one entry are separate records, joined by “and”; a condition that tells them apart may be missing. Equal values may be shown once. Inconclusive results and toxic doses are left out. No stated cut-off is given here; in the data, active means T/C of 150% or more; inactive means T/C below 125%. Square brackets hold non-standard residues; d marks the D form. Peptide text beside a SMILES is read from it. * marks the point of attachment. ξ: configuration not given here. Cbz = O=C(OCc1ccccc1)*; ξP = O=C(O)C1CCCN1

Test system: L1210 leukemia ip in BDF1 mice, survival T/C
Experiment: NCI In Vivo Anticancer Drug Screen. Data for tumor model L1210 Leukemia (intraperitoneal) in B6D2F1 (BDF1) mice
Conditions: endpoint: mean survival time, higher = longer survival
Method in brief: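 Mice bearing the transplanted tumor received compound or vehicle. Survival of the treated group was divided by that of the vehicle-treated control group to give the ratio.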

[1] = dose: 50.0 mg/kg/injection, schedule: Q04DX003 (ip), vehicle: saline
[2] = dose: 100.0 mg/kg/injection, schedule: Q04DX003 (ip), vehicle: saline
[3] = dose: 100.0 mg/kg/injection, schedule: Q04DX003 (ip), vehicle: Klucel (hydroxypropylcellulose) (HPC)
[4] = dose: 100.0 mg/kg/injection, schedule: Q01DX001 (ip), vehicle: saline
[5] = dose: 200.0 mg/kg/injection, schedule: Q01DX001 (ip), vehicle: saline
[6] = dose: 100.0 mg/kg/injection, schedule: Q04DX002 (ip), vehicle: Klucel (hydroxypropylcellulose) (HPC)
[7] = dose: 200.0 mg/kg/injection, schedule: Q04DX002 (ip), vehicle: Klucel (hydroxypropylcellulose) (HPC)
[8] = dose: 50.0 mg/kg/injection, schedule: Q01DX009 (ip), vehicle: Klucel (hydroxypropylcellulose) (HPC)
[9] = dose: 100.0 mg/kg/injection, schedule: Q01DX009 (ip), vehicle: Klucel (hydroxypropylcellulose) (HPC)
[10] = dose: 200.0 mg/kg/injection, schedule: Q01DX009 (ip), vehicle: Klucel (hydroxypropylcellulose) (HPC)
[11] = dose: 400.0 mg/kg/injection, schedule: Q01DX001 (ip), vehicle: saline
[12] = dose: 200.0 mg/kg/injection, schedule: Q04DX003 (ip), vehicle: saline
[13] = dose: 50.0 mg/kg/injection, schedule: Q01DX009 (ip), vehicle: saline with Tween-80
[14] = dose: 100.0 mg/kg/injection, schedule: Q01DX009 (ip), vehicle: saline with Tween-80
[15] = dose: 200.0 mg/kg/injection, schedule: Q01DX009 (ip), vehicle: saline with Tween-80

Measured: T/C

NC(=O)NC(CCl)NC(N)=O
inactive: dose: 25.0 mg/kg/injection, schedule: Q01DX009 (ip), vehicle: acetone 95 % of control | dose: 25.0 mg/kg/injection, schedule: Q04DX003 (ip), vehicle: saline 96 % of control | dose: 50.0 mg/kg/injection, schedule: Q01DX009 (ip), vehicle: acetone 94 % of control | [1] 94 % of control | dose: 100.0 mg/kg/injection, schedule: Q01DX001 (ip), vehicle: acetone 94 % of control | [2] 89 % of control

CCOC(=O)C1C2OC(=O)C(C(=O)C2C(C2CC=CCC2)N(CCCl)CCCl)C1c1ccc(OC(C)=O)cc1 (centres undefined)
inactive: [3] 101 % of control | dose: 200.0 mg/kg/injection, schedule: Q04DX003 (ip), vehicle: Klucel (hydroxypropylcellulose) (HPC) 97 % of control | dose: 400.0 mg/kg/injection, schedule: Q04DX003 (ip), vehicle: Klucel (hydroxypropylcellulose) (HPC) 98 % of control

O=C(O)c1ccc(F)cc1O
inactive: [4] 97 % of control | [5] 109 % of control

C/C(=N/NC(=O)c1ccc(N)cc1)c1ccc(C)cc1
inactive: [6] 110 % of control | [7] 89 % of control

O=[N+]([O-])c1cccc(C=Nc2cccc([N+](=O)[O-])c2)c1
inactive: dose: 100.0 mg/kg/injection, schedule: Q04DX003 (ip), vehicle: gum acacia 95 % of control | dose: 200.0 mg/kg/injection, schedule: Q04DX003 (ip), vehicle: gum acacia 93 % of control | dose: 400.0 mg/kg/injection, schedule: Q04DX003 (ip), vehicle: gum acacia 98 % of control

COc1cccc[n+]1CC(=O)c1ccccc1
inactive: [8] 95 % of control | [9] 98 % of control | [10] 95 % of control

O=c1c(=O)c2ccccc2c(=O)/c1=N/Nc1ccccc1
inactive: dose: 100.0 mg/kg/injection, schedule: Q01DX001 (ip), vehicle: water 98 % of control | dose: 200.0 mg/kg/injection, schedule: Q01DX001 (ip), vehicle: water 95 % of control | dose: 400.0 mg/kg/injection, schedule: Q01DX001 (ip), vehicle: water 97 % of control

C/C(=C\COc1ccc(C)cc1)CC/C=C(\C)CCC1OC1(C)C (centres undefined)
inactive: dose: 50.0 mg/kg/injection, schedule: Q04DX002 (ip), vehicle: saline with Tween-80 108 % of control | dose: 100.0 mg/kg/injection, schedule: Q04DX002 (ip), vehicle: saline with Tween-80 108 % of control | dose: 200.0 mg/kg/injection, schedule: Q04DX002 (ip), vehicle: saline with Tween-80 92 % of control

CC1=NN(C)C(=O)C1
inactive: dose: 50.0 mg/kg/injection, schedule: Q01DX001 (ip), vehicle: saline 103 % of control | [4] 103 % of control | [5] 103 % of control | [11] 103 % of control

COC(=O)C1CCCN1C(=O)CNC(=O)OCc1ccccc1 (stereo not drawn) (Cbz-Gly-[ξP]-OMe)
inactive: [2] 97 % of control | [12] 101 % of control | dose: 400.0 mg/kg/injection, schedule: Q04DX003 (ip), vehicle: saline 95 % of control

COc1ccc(N=Cc2ccc(C=Nc3ccc(OC)cc3)cc2)cc1
inactive: dose: 25.0 mg/kg/injection, schedule: Q04DX003 (ip), vehicle: Klucel (hydroxypropylcellulose) (HPC) 96 % of control | [8] 90 % of control | dose: 50.0 mg/kg/injection, schedule: Q04DX003 (ip), vehicle: Klucel (hydroxypropylcellulose) (HPC) 98 % of control | [9] 97 % of control | [3] 96 % of control | [10] 88 % of control

NNc1ccc(S(=O)(=O)C(F)F)cc1
inactive: [4] 95 % of control | [5] 92 % of control | [11] 93 % of control

CC(CCC(C)OS(C)(=O)=O)OS(C)(=O)=O (centres undefined)
inactive: dose: 2.0 mg/kg/injection, schedule: Q01DX010 (ip), vehicle: saline 86 % of control and 87 % of control | dose: 3.1 mg/kg/injection, schedule: Q01DX009 (ip), vehicle: Klucel (hydroxypropylcellulose) (HPC) 96 % of control | dose: 4.0 mg/kg/injection, schedule: Q01DX009 (ip), vehicle: saline 97 % of control | dose: 4.0 mg/kg/injection, schedule: Q01DX010 (ip), vehicle: saline 100 % of control | dose: 6.25 mg/kg/injection, schedule: Q01DX009 (ip), vehicle: Klucel (hydroxypropylcellulose) (HPC) 102 % of control and 103 % of control and 101 % of control | dose: 6.25 mg/kg/injection, schedule: Q04DX002 (ip), vehicle: Klucel (hydroxypropylcellulose) (HPC) 96 % of control | dose: 8.0 mg/kg/injection, schedule: Q01DX009 (ip), vehicle: saline 101 % of control | dose: 8.0 mg/kg/injection, schedule: Q01DX010 (ip), vehicle: saline 89 % of control and 90 % of control | dose: 12.5 mg/kg/injection, schedule: Q01DX009 (ip), vehicle: Klucel (hydroxypropylcellulose) (HPC) 105 % of control [middle of 4 runs] | dose: 12.5 mg/kg/injection, schedule: Q04DX002 (ip), vehicle: Klucel (hydroxypropylcellulose) (HPC) 96 % of control and 100 % of control | dose: 16.0 mg/kg/injection, schedule: Q01DX009 (ip), vehicle: saline 108 % of control | dose: 16.0 mg/kg/injection, schedule: Q01DX010 (ip), vehicle: saline 106 % of control and 114 % of control | dose: 25.0 mg/kg/injection, schedule: Q01DX009 (ip), vehicle: Klucel (hydroxypropylcellulose) (HPC) 102 % of control and 88 % of control and 108 % of control | dose: 25.0 mg/kg/injection, schedule: Q04DX002 (ip), vehicle: Klucel (hydroxypropylcellulose) (HPC) 96 % of control and 93 % of control and 94 % of control | dose: 32.0 mg/kg/injection, schedule: Q01DX009 (ip), vehicle: saline 103 % of control | [8] 87 % of control | [13] 91 % of control and 93 % of control | dose: 50.0 mg/kg/injection, schedule: Q04DX002 (ip), vehicle: Klucel (hydroxypropylcellulose) (HPC) 107 % of control | [14] 98 % of control and 97 % of control | [15] 91 % of control and 87 % of control

Nc1nc2ccccc2nc1N
inactive: dose: 50.0 mg/kg/injection, schedule: Q01DX009 (ip), vehicle: saline 96 % of control | [1] 105 % of control | dose: 100.0 mg/kg/injection, schedule: Q01DX009 (ip), vehicle: saline 104 % of control | [2] 101 % of control | [12] 108 % of control

Cc1ccccc1[P+](Cc1ccccc1)(c1ccccc1)c1ccccc1C
inactive: dose: 15.0 mg/kg/injection, schedule: Q01DX001 (ip), vehicle: saline 104 % of control

C=CCn1c(=O)n(CC=C)c(=O)n(CC=C)c1=O
inactive: [4] 108 % of control | dose: 100.0 mg/kg/injection, schedule: Q04DX003 (ip), vehicle: carboxymethylcellulose (CMC) 106 % of control | [5] 102 % of control | dose: 200.0 mg/kg/injection, schedule: Q04DX003 (ip), vehicle: carboxymethylcellulose (CMC) 92 % of control | [11] 104 % of control | dose: 400.0 mg/kg/injection, schedule: Q04DX003 (ip), vehicle: carboxymethylcellulose (CMC) 95 % of control

O=C(COc1ccc(Cl)cc1)Nc1ccc(I)cc1
inactive: [6] 92 % of control | [7] 100 % of control | dose: 400.0 mg/kg/injection, schedule: Q04DX002 (ip), vehicle: Klucel (hydroxypropylcellulose) (HPC) 96 % of control

COc1ccccc1N=Cc1ccccc1O.[Co]
inactive: dose: 100.0 mg/kg/injection, schedule: Q01DX001 (ip), vehicle: other 94 % of control | dose: 200.0 mg/kg/injection, schedule: Q01DX001 (ip), vehicle: other 94 % of control | dose: 400.0 mg/kg/injection, schedule: Q01DX001 (ip), vehicle: other 93 % of control

CCCCCCC(=O)N1C(C)CCCC1C (centres undefined)
inactive: dose: 100.0 mg/kg/injection, schedule: Q04DX002 (ip), vehicle: saline 107 % of control | dose: 200.0 mg/kg/injection, schedule: Q04DX002 (ip), vehicle: saline 103 % of control | dose: 400.0 mg/kg/injection, schedule: Q04DX002 (ip), vehicle: saline 92 % of control

COc1ccc(Cc2nnc(Cc3ccc(OC)c(OC)c3)nn2)cc1OC
inactive: [13] 89 % of control | [14] 93 % of control | [15] 87 % of control

CCCN(CCC)CCCC#N
inactive: dose: 100.0 mg/kg/injection, schedule: Q04DX003 (ip), vehicle: saline with Tween-80 95 % of control | dose: 200.0 mg/kg/injection, schedule: Q04DX003 (ip), vehicle: saline with Tween-80 93 % of control

NNC(=O)c1nc2ccccc2s1
inactive: dose: 75.0 mg/kg/injection, schedule: Q01DX001 (ip), vehicle: other 96 % of control | dose: 150.0 mg/kg/injection, schedule: Q01DX001 (ip), vehicle: other 98 % of control
